Our source for the IC50 values is patent US20240376099A1, “COMPOUNDS AND COMPOSITIONS AS INHIBITORS OF ENDOSOMAL TOLL-LIKE RECEPTORS” (Novartis AG, priority 2016, published 2024).

A word on the IC50: it is the concentration at which inhibition is half-maximal.

For the test, the target named is T1, TLR8 (Homo sapiens, UniProt Q9NR97).
T1 sequence (Q9NR97 27-1041): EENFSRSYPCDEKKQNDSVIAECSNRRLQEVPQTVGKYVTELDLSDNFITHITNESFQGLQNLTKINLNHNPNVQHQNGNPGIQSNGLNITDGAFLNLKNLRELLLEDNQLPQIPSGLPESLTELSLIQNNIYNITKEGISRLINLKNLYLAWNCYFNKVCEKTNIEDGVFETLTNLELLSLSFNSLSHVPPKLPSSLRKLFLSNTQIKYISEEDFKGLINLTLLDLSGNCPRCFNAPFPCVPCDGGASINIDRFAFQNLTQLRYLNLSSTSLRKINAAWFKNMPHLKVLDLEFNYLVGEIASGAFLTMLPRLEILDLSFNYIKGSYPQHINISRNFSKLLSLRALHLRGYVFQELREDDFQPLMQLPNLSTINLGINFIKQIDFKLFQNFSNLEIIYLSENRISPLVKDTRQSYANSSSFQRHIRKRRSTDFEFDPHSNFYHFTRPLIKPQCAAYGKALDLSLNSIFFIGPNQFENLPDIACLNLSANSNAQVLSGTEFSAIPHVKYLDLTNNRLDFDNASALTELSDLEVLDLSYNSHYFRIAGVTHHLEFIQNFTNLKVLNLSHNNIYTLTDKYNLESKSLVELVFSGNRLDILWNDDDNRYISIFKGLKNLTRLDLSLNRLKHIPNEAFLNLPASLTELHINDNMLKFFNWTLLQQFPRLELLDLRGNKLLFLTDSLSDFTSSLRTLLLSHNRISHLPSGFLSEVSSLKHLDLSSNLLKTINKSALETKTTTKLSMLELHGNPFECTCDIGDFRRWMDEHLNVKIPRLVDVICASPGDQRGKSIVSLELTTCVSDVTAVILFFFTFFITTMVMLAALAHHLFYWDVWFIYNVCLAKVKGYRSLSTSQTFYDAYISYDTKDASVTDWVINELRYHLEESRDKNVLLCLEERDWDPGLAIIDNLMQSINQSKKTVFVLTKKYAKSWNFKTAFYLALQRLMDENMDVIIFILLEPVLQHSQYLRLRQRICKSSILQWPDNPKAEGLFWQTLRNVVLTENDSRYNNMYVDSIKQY
Kind of test: huPBMC TLR8 Antagonist IL-6 TR-FRET Assay. The test is classed as cell-based. Further details: Fresh blood was collected from normal human donors; endogenous in cells; host or cells: human PBMCs from fresh donor blood. Conditions: human PBMCs stimulated with ssRNA40 1 μg/ml (DOTAP), 14-16 hrs; IL-6 TR-FRET read-out. In outline: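 Human PBMCs from fresh donor blood (150,000 cells/well) stimulated 14–16 h at 37 °C with DOTAP-complexed ssRNA40 (final 1 μg/ml for TLR8, 10 μg/mL for TLR7) or ODN2216 (final 0.3 μM, TLR9), 0.25% DMSO, ten-point 1/3 compound dilutions. Supernatant IL-6 read by HTRF (TLR8); IFNα by IFNα2b AlphaLISA (TLR7/TLR9).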
On to `Cc1cc(N2CCc3c(c(C)nn3CC34CCC(NC(C)C)(CC3)CC4)C2)c2cnn(C)c2n1` [compound 55, 4-((5-(1,6-dimethyl-1H-pyrazolo[3,4-b]pyridin-4-yl)-3-methyl-4,5,6,7-tetrahydro-1H-pyrazolo[4,3-c]pyridin-1-yl)methyl)-N-isopropylbicyclo[2.2.]octan-1-amine], for which the IC50 amounted to 0.42 µM.
In the case of `Cc1cc(N2CCc3c(c(C)nn3CC34CCC(N5CCCC5)(CC3)CC4)C2)c2cnn(C)c2n1` [Compound No. 58, 5-(1,6-dimethyl-1H-pyrazolo[3,4-b]pyridin-4-yl)-3-methyl-1-((4-(pyrrolidin-1-yl)bicyclo[2.2.2]octan-1-yl)methyl)-4,5,6,7-tetrahydro-1H-pyrazolo[4,3-c]pyridine] it was 0.053 µM; in that of `CCNC12CCC(Cn3nc(C)c4c3CCN(c3cc(C)nc5c3cnn5C)C4)(CC1)CC2` [compound 57, 4-((5-(1,6-dimethyl-1H-pyrazolo[3,4-b]pyridin-4-yl)-3-methyl-4,5,6,7-tetrahydro-1H-pyrazolo[4,3-c]pyridin-1-yl)methyl)-N-ethylbicyclo[2.2.]octan-1-amine], 0.11 µM.
Turning to `Cc1cc(N2CCc3c(c(C)nn3CC34CCC(N5C[C@@H](O)[C@@H](O)C5)(CC3)CC4)C2)c2cnn(C)c2n1` [compound 74, (3S,4R)-1-(4-((5-(1,6-dimethyl-1H-pyrazolo[3,4-b]pyridin-4-yl)-3-methyl-4,5,6,7-tetrahydro-1H-pyrazolo[4,3-c]pyridin-1-yl)methyl)bicyclo[2.2.2]octan-1-yl)pyrrolidine-3,4-diol], the IC50 amounted to 0.158 µM.
As for `Cc1cc(N2CCc3c(c(C)nn3CC34CCC(N)(CC3)CC4)C2)c2cnn(C)c2n1` [Compound No. 1, 4-((5-(1,6-dimethyl-1H-pyrazolo[3,4-b]pyridin-4-yl)-3-methyl-4,5,6,7-tetrahydro-1H-pyrazolo[4,3-c]pyridin-1-yl)methyl)bicyclo[2.2.2]octan-1-amine], the figure is 0.236 µM; as for `Cc1cc(N2CCc3c(c(C)nn3CC34CCC(NC5CCC5)(CC3)CC4)C2)c2cnn(C)c2n1` [compound 54, N-cyclobutyl-4-((5-(1,6-dimethyl-1H-pyrazolo[3,4-b]pyridin-4-yl)-3-methyl-4,5,6,7-tetrahydro-1H-pyrazolo[4,3-c]pyridin-1-yl)methyl)bicyclo[2.2.2]octan-1-amine], 0.074 µM.
As for `COCCNC12CCC(Cn3nc(C)c4c3CCN(c3cc(C)nc5c3cnn5C)C4)(CC1)CC2` [Compound No. 69, 4-((5-(1,6-dimethyl-1H-pyrazolo[3,4-b]pyridin-4-yl)-3-methyl-4,5,6,7-tetrahydro-1H-pyrazolo[4,3-c]pyridin-1-yl)methyl)-N-(2-methoxyethyl)bicyclo[2.2.2]octan-1-amine], the figure is 0.031 µM.
